{
  "source": "ChEMBL document CHEMBL1201862",
  "about": "“PubChem BioAssay data set” (2004)",
  "assay_in_all_cases": "NCI anticancer screen, dose series, 48 h",
  "key": {"BT-549": {"tested_on": "BT-549"}, "CCRF-CEM": {"tested_on": "CCRF-CEM"}, "NCI-H460": {"tested_on": "NCI-H460"}, "DU-145": {"tested_on": "DU-145"}, "MDA-MB-231": {"tested_on": "MDA-MB-231"}, "A549": {"tested_on": "A549"}, "SK-OV-3": {"tested_on": "SK-OV-3"}, "SNB-75": {"tested_on": "SNB-75"}, "NCI-H522": {"tested_on": "NCI-H522"}, "NCI-H226": {"tested_on": "NCI-H226"}, "RPMI-8226": {"tested_on": "RPMI-8226"}, "OVCAR-5": {"tested_on": "OVCAR-5"}, "SF-268": {"tested_on": "SF-268"}, "OVCAR-4": {"tested_on": "OVCAR-4"}, "786-0": {"tested_on": "786-0"}, "U-251": {"tested_on": "U-251"}, "IGROV-1": {"tested_on": "IGROV-1"}, "SN12C": {"tested_on": "SN12C"}, "SF-295": {"tested_on": "SF-295"}, "HL-60": {"tested_on": "HL-60"}, "SW-620": {"tested_on": "SW-620"}, "UO-31": {"tested_on": "UO-31"}, "UACC-257": {"tested_on": "UACC-257"}, "MDA-MB-435": {"tested_on": "MDA-MB-435"}, "OVCAR-3": {"tested_on": "OVCAR-3"}, "SK-MEL-28": {"tested_on": "SK-MEL-28"}, "HT-29": {"tested_on": "HT-29"}, "CAKI-1": {"tested_on": "CAKI-1"}, "MOLT-4": {"tested_on": "MOLT-4"}, "SR": {"tested_on": "SR"}, "COLO 205": {"tested_on": "COLO 205"}, "SNB-19": {"tested_on": "SNB-19"}, "UACC-62": {"tested_on": "UACC-62"}, "K562": {"tested_on": "K562"}, "TK-10": {"tested_on": "TK-10"}, "SF-539": {"tested_on": "SF-539"}, "LOX IMVI": {"tested_on": "LOX IMVI"}, "HCT-116": {"tested_on": "HCT-116"}, "NCI-H23": {"tested_on": "NCI-H23"}, "OVCAR-8": {"tested_on": "OVCAR-8"}, "Malme-3M": {"tested_on": "Malme-3M"}, "HOP-62": {"tested_on": "HOP-62"}, "SK-MEL-5": {"tested_on": "SK-MEL-5"}, "PC-3": {"tested_on": "PC-3"}, "M14": {"tested_on": "M14"}, "KM12": {"tested_on": "KM12"}, "HOP-92": {"tested_on": "HOP-92"}, "HCC 2998": {"tested_on": "HCC 2998"}, "HCT-15": {"tested_on": "HCT-15"}, "SK-MEL-2": {"tested_on": "SK-MEL-2"}, "NCI/ADR-RES": {"tested_on": "NCI/ADR-RES"}, "A498": {"tested_on": "A498"}, "Hs-578T": {"tested_on": "Hs-578T"}, "MDA-N": {"tested_on": "MDA-N"}, "EKVX": {"tested_on": "EKVX"}, "MCF7": {"tested_on": "MCF7"}, "ACHN": {"tested_on": "ACHN"}, "RXF 393": {"tested_on": "RXF 393"}, "T47D": {"tested_on": "T47D"}},
  "note": "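Five concentrations, 48 hours, 96-well plates. The concentration for 50% growth inhibition is given as GI50.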 Activity calls are given as the source filed them. No stated cut-off is given here; in the data, active = GI50 up to about 1.1 µM and inactive = higher.",
  "data": [
    {"smiles": "CN(C)c1ccc(/C(F)=C(F)/C(F)=C(F)/C(F)=C(\\F)c2ccc(Br)cc2)cc1", "values": [
      {"measurement": "GI50", "setting": "BT-549", "result": "31.8 µM (inactive)"},
      {"measurement": "GI50", "setting": "CCRF-CEM", "result": "29.4 µM (inactive)"},
      {"measurement": "GI50", "setting": "NCI-H460", "result": "26.2 µM (inactive)"},
      {"measurement": "GI50", "setting": "DU-145", "result": "19.4 µM (inactive)"},
      {"measurement": "GI50", "setting": "MDA-MB-231", "result": "39.5 µM (inactive)"},
      {"measurement": "GI50", "setting": "A549", "result": "31.5 µM (inactive)"},
      {"measurement": "GI50", "setting": "SK-OV-3", "result": "30.1 µM (inactive)"},
      {"measurement": "GI50", "setting": "SNB-75", "result": "27.2 µM (inactive)"},
      {"measurement": "GI50", "setting": "NCI-H522", "result": "7.46 µM (inactive)"},
      {"measurement": "GI50", "setting": "NCI-H226", "result": "50 µM (inactive)"},
      {"measurement": "GI50", "setting": "RPMI-8226", "result": "32.7 µM (inactive)"},
      {"measurement": "GI50", "setting": "OVCAR-5", "result": "23.8 µM (inactive)"},
      {"measurement": "GI50", "setting": "SF-268", "result": "51.8 µM (inactive)"},
      {"measurement": "GI50", "setting": "OVCAR-4", "result": "23.9 µM (inactive)"},
      {"measurement": "GI50", "setting": "786-0", "result": "3.92 µM (inactive)"},
      {"measurement": "GI50", "setting": "U-251", "result": "17.5 µM (inactive)"},
      {"measurement": "GI50", "setting": "IGROV-1", "result": "27.6 µM (inactive)"},
      {"measurement": "GI50", "setting": "SN12C", "result": "6.61 µM (inactive)"},
      {"measurement": "GI50", "setting": "SF-295", "result": "6.98 µM (inactive)"},
      {"measurement": "GI50", "setting": "HL-60", "result": "8.97 µM (inactive)"},
      {"measurement": "GI50", "setting": "SW-620", "result": "22.1 µM (inactive)"},
      {"measurement": "GI50", "setting": "UO-31", "result": "25.1 µM (inactive)"},
      {"measurement": "GI50", "setting": "UACC-257", "result": "> 74.1 µM (inactive)"},
      {"measurement": "GI50", "setting": "MDA-MB-435", "result": "3.1 µM (inactive)"},
      {"measurement": "GI50", "setting": "OVCAR-3", "result": "9.38 µM (inactive)"},
      {"measurement": "GI50", "setting": "SK-MEL-28", "result": "> 100 µM (inactive)"},
      {"measurement": "GI50", "setting": "HT-29", "result": "27.5 µM (inactive)"},
      {"measurement": "GI50", "setting": "CAKI-1", "result": "18.7 µM (inactive)"},
      {"measurement": "GI50", "setting": "MOLT-4", "result": "25.6 µM (inactive)"},
      {"measurement": "GI50", "setting": "SR", "result": "5 µM (inactive)"},
      {"measurement": "GI50", "setting": "COLO 205", "result": "23.4 µM (inactive)"},
      {"measurement": "GI50", "setting": "SNB-19", "result": "23.7 µM (inactive)"},
      {"measurement": "GI50", "setting": "UACC-62", "result": "22.9 µM (inactive)"},
      {"measurement": "GI50", "setting": "K562", "result": "13.2 µM (inactive)"},
      {"measurement": "GI50", "setting": "TK-10", "result": "> 75.5 µM (inactive)"},
      {"measurement": "GI50", "setting": "SF-539", "result": "33 µM (inactive)"},
      {"measurement": "GI50", "setting": "LOX IMVI", "result": "19.8 µM (inactive)"},
      {"measurement": "GI50", "setting": "HCT-116", "result": "5.33 µM (inactive)"},
      {"measurement": "GI50", "setting": "NCI-H23", "result": "14.8 µM (inactive)"},
      {"measurement": "GI50", "setting": "OVCAR-8", "result": "33 µM (inactive)"},
      {"measurement": "GI50", "setting": "Malme-3M", "result": "9.29 µM (inactive)"},
      {"measurement": "GI50", "setting": "HOP-62", "result": "37.2 µM (inactive)"},
      {"measurement": "GI50", "setting": "SK-MEL-5", "result": "25.3 µM (inactive)"},
      {"measurement": "GI50", "setting": "PC-3", "result": "15.2 µM (inactive)"},
      {"measurement": "GI50", "setting": "M14", "result": "16.1 µM (inactive)"},
      {"measurement": "GI50", "setting": "KM12", "result": "9.53 µM (inactive)"},
      {"measurement": "GI50", "setting": "HOP-92", "result": "47.6 µM (inactive)"},
      {"measurement": "GI50", "setting": "HCC 2998", "result": "18.2 µM (inactive)"},
      {"measurement": "GI50", "setting": "HCT-15", "result": 13.3, "unit": "µM"},
      {"measurement": "GI50", "setting": "SK-MEL-2", "result": "25.9 µM (inactive)"},
      {"measurement": "GI50", "setting": "NCI/ADR-RES", "result": "6.4 µM (inactive)"},
      {"measurement": "GI50", "setting": "A498", "result": "16.7 µM (inactive)"},
      {"measurement": "GI50", "setting": "Hs-578T", "result": "17.2 µM (inactive)"},
      {"measurement": "GI50", "setting": "MDA-N", "result": "2.43 µM (inactive)"},
      {"measurement": "GI50", "setting": "EKVX", "result": "22.9 µM (inactive)"},
      {"measurement": "GI50", "setting": "MCF7", "result": "9.46 µM (inactive)"},
      {"measurement": "GI50", "setting": "ACHN", "result": "52.8 µM (inactive)"},
      {"measurement": "GI50", "setting": "RXF 393", "result": "9.2 µM (inactive)"},
      {"measurement": "GI50", "setting": "T47D", "result": "34.7 µM (inactive)"}
    ]}
  ]
}
